melting point [°C] | Compound
178 to 179 | COC1C=C(C)C(=O)CC(C)(C)C1OC(=O)c1ccc(N)cc1N (centres undefined)
129 to 130 | COC(=O)c1ccc(CCC(O)CCc2ccc(C(=O)OC)cc2)cc1
65 to 68 | Cc1nnc(SCCCC(=O)NC/C=C\COc2cc(CN3CCCCC3)ccn2)s1
148 | Cc1c(C(=O)O)cnn1-c1ccc(F)c(F)c1
182 to 184 | Cc1c(C(=O)O)oc2ccc(Br)c(OC(C)C)c12
118 | CCCCCC1CCC2c3ccc(OCC)c(F)c3OC2C1 (centres undefined)
123 to 126 | CCc1nn(C2CCCC2)c2cc(C(=O)NCCc3ccncc3)ccc12
189 to 191 | O=C(O)c1cc(Cl)ccc1Nc1ccc(OCc2ccccc2)cc1
157 to 160 | CON(Cc1ccc(C(=O)OC(C)(C)C)cc1)C(=O)C1=C(O)C(=O)N(C)C1
224 to 227 | O=C(CC(=O)c1snc(Cl)c1Cl)c1ccc(O)cc1
130 to 131 | CCOC(=O)c1c(NCCC(=O)c2ccccc2)c2c(Cl)cc(Cl)cc2n1C(=O)OC(C)(C)C
89 to 91 | CCOC(=O)CCc1cn(C)nc1O
229 to 234 | CC(C)(C)NS(=O)(=O)c1ccc2c(c1)C=C(C(=O)O)C(C(F)(F)F)O2 (centres undefined)
188 to 189 | CCCCC(=O)c1cc2oc(C(=O)O)cc2c(C)c1C
220 | COC(=O)c1cc2cc(C(=O)c3ccc(F)cc3)sc2s1
140 to 144 | CCOC(=O)CNC(=O)Nc1ccc(C#N)cc1
82 to 85 | COC(=O)c1[nH]c2c(C)ccc(C)c2c1SC
269 to 270 | O=C(O)c1c[nH]c2c1C(=O)CCC2

melting point [°C] | Compound
103 to 105 | COc1ccc(C(=O)CCC2OCCO2)cc1OC
179 to 182 | Cc1ccc2c(O)cc(=O)oc2c1
92 to 93 | CCCCOc1cc(CCC(=O)O)ccc1OCCCc1cn(-c2ccc(C(F)(F)F)cn2)nc1OCC
132 to 134 | COC(=O)c1cc(Cl)cc(C(=O)OC)n1
172 to 175 | Cc1ccc([N+](=O)[O-])c(C(N)=O)c1
69 to 69.5 | CN(CCc1ccc([N+](=O)[O-])cc1)Cc1nc2ccc([N+](=O)[O-])cc2o1
102 to 105 | CCCn1c(=O)n(C2CCN(C(=O)OC(C)(C)C)CC2)c2ccccc21
116 to 117 | CCOC(=O)C1=Cc2cc(Cl)c(Oc3ccc(OC)cc3)cc2OC1C(F)(F)F (centres undefined)
105 to 106 | CCCCCc1ccc(OCC(O)CCCCCCC(=O)O)cc1 (centres undefined)
88 | CCN(CC)C(=O)c1cc(-c2ccc(OC)cc2)c2ccsc2c1
230 | CCCc1nc(C=Cc2ccccc2)c(C(=O)O)n1Cc1cc2c(cc1Cl)OCO2
147 to 149 | CCCc1ccc(Oc2ccc3c(c2)C=C(C(=O)O)CCS3(=O)=O)cc1
80 to 82 | COc1ccc(Cn2c(=O)c3cccnc3n(CCCCBr)c2=O)cc1
95 | COC(=O)CCCc1cc2nc(C(F)(F)F)ccc2n1S(=O)(=O)c1ccccc1
116 | CC[C@@]1(C=O)CCCN(CCc2c[nH]c3ccc(F)cc23)C1=O
45 to 47 | Cc1cc(Oc2ncc(C(F)(F)F)cc2Cl)nn1C(=O)NCC(C)C
185 to 186 | CS(=O)(=O)c1ccc(CCNC(=O)C(N)=O)cc1OC1CCCC1
164 to 167 | CCCc1c(OCCCOc2cccc3ccccc23)ccc2c1OC(CCC(=O)O)(CCC(=O)O)CC2=O

The remaining lines, values behind:

Compound | melting point [°C]
Nc1nc(=O)c2ccccc2n1Cc1ccc(F)cc1 | 170
COc1ccc2c(c1)C(c1ccc(N)cc1)=NN=C(C)C2 | 136 to 138
Cn1cnc2nc(C#Cc3ccccc3)nn2c1=S | 290 to 295
CC(Br)c1ccc(-c2ccc(C(=O)c3ccccc3)cc2)cc1 (centres undefined) | 132 to 134
OCCn1nc(-c2ccc(F)cc2)c(-c2ccncc2)c1C1CC1 | 155 to 157
N#Cc1ccc(Nn2cnnc2)cc1-c1ccc(OCc2ccccc2)cc1 | 180 to 182
O=C(N[C@@H](Cc1ccccc1)C[C@H](O)[C@H](Cc1ccccc1)NC(=O)OCc1nccs1)OCc1nccs1 | 66 to 69
Nc1ccc(-c2nccc3[nH]c(=O)ccc23)cc1 | 309 to 312
O=C(Nc1ccc(-c2nn(C(=O)c3ccccc3)c3c2Cc2ccccc2-3)cc1)c1ccccc1 | 241
Cc1ccc(-c2nnc(-c3ccco3)s2)cc1 | 111 to 113
CS(=O)(=O)OC[C@@H](O)COc1ccc(C#N)cc1 | 119 to 121
Cc1nc2c3c(ccn2c1C)C(O)C(O)C(c1ccccc1)N3 (centres undefined) | 199 to 200
CCOC(=O)N1CCC(=C2c3ccc(Cl)cc3SCc3cccnc32)CC1 | 154 to 157
CS(=O)(=O)c1ccc(-c2c(-c3ccc(F)cc3)c(OCC(=O)c3ccc(F)cc3)nn2CC(=O)c2ccc(F)cc2)cc1 | 194 to 196
COc1nc(SC)cc2cnc(-c3ccccc3)n12 | 134
COc1ccc(CC(C)NCC(O)c2cccc(Cl)c2)cc1 (centres undefined) | 80 to 87
C=C(Cl)c1c(C(F)(F)F)nc(C)[nH]c1=O | 164 to 166
CCCCCCCCCCc1cc2c(s1)-n1c(C)nnc1CN=C2c1ccccc1OC | 90 to 92
CC(C)(C)OC(=O)N[C@@H](Cc1ccccc1)[C@H]1CO1 | 126
O=c1nc(-c2ccc(Br)cc2)c2c(=O)nc(-c3ccc(Br)cc3)c1=2 | > 400
Cc1cc(-n2ccnc2)c2cccc(OCc3c(Cl)ccc(S(=O)(=O)N4CCC[C@H]4C(=O)NCC4CCN(CCCO)CC4)c3Cl)c2n1 | 90
N#Cc1cc(N=Nc2cccc(Cl)c2)ccc1N | 255
CNn1c(C)nn(C(=O)NC(C)(C)C)c1=O | 150

Compound | melting point [°C]
Oc1cc2c3c(sc2c(Cl)c1Cl)CCCC3 | 103 to 105
CC1=C(C)C[C@H]2C(=O)CC(=O)[C@H]2C1 | 157 to 158
O[C@@H](COCc1ccccc1)[C@H](OCc1ccccc1)[C@@H](OCc1ccccc1)[C@@H](O)COCc1ccccc1 | 52.5 to 53
OCCOCc1csc2ccccc12 | 149 to 150
COc1cc2c(cc1OC)NC(=O)CCC2 | 153 to 156
COC(OC)C(C)NC1=Nc2ccc(Cl)cc2C(c2ccccc2Cl)=NC1 (centres undefined) | 153 to 155
CC(=O)Nc1ccc2c(c1)OCCCO2 | 108 to 109
CN1Cc2c(C#CC(C)(C)O)ncn2-c2cccc(Br)c2C1=O | 207 to 208
N#CC(N)c1cccc(Cl)c1 (centres undefined) | 31 to 33
O=C(CNc1ccc2[nH]c(=O)sc2c1)N1CCC(Cc2ccc(F)cc2)CC1 | 149 to 155
CC(=O)Nc1nc(C)n2c1CN=C(c1ccccc1F)c1cc(Cl)ccc1-2 | 175 to 178
O=c1ccc2cc([C@H](c3cccc(C(F)(F)F)c3)n3cncn3)ccc2[nH]1 | 176
NCC1Cc2cc(-c3ccccc3)cc(-c3cccc(F)c3)c2O1 (centres undefined) | > 250
O=[N+]([O-])c1cccc(O)c1CO | 97 to 99
Cc1nc(N)sc1CCC1CCCCC1 | 98 to 100
CCN(CC)CCOc1ccc(Nc2ncc3c(n2)N(C)C(=O)N(c2ccccc2Br)C3)cc1 | 144
O=C1CCC(CCO)(c2ccc(F)c(F)c2)CN1Cc1cc(C(F)(F)F)cc(C(F)(F)F)c1 (centres undefined) | 120
COc1cc(COc2nn(-c3ccccc3)cc2CC#N)ccc1OCc1nc(-c2ccccc2)oc1C | 137 to 138
CN(C)C1(c2ccccc2)CC=C(c2cn(S(=O)(=O)c3ccccc3)c3ccccc23)CC1 (centres undefined) | 165 to 167
CCC(O)c1ccc(Cl)c2nc3n(c12)CCCN3c1c(Br)cc(OC)cc1Br (centres undefined) | 138 to 140
O=[N+]([O-])c1ccc2c(c1)CN[C@H](CO)C2 | 184
COc1cc(Br)ccc1N | 56.5 to 58
COc1nc(Nc2cc(C)ccc2N)nc(OC)n1 | 180 to 183

Compound | melting point [°C]
CCCN(CCC)C1Cc2cccc3c2N(C1)C(=O)CN3 (centres undefined) | 97 to 99
Nc1nc(N)c(-c2cc(Cl)cc(Cl)c2Cl)nc1Br | 222 to 224
O=c1c2cccnc2n(-c2cccc(CO)c2)c(=O)n1Cc1cccnc1 | 197 to 198
O=C(NCC(F)(F)F)c1cccc(-c2nc(=O)c3ccccc3s2)n1 | 243 to 244
CS(=O)c1ccc(Oc2ccc([N+](=O)[O-])cc2)cc1 (centres undefined) | 76 to 78
CCN(CC)C(=O)c1ccc[nH]1 | 78.6 to 79.9
Cc1nnc2n1-c1ccc(NC(=O)NCCO)cc1C(c1ccccc1F)=NC2 | 228 to 230
COc1ccc(Nc2cc(-c3ccccc3)nc(Nc3ccc(OC)c(Cl)c3)n2)cc1Cl | 250 to 254
BrCCCN(c1ccccc1)c1ccccc1 | 162 to 164
CS(=O)(=O)Nc1ccc(C(=O)NC(=O)N2CCC(Cc3ccccc3)CC2)cc1 | 97.5 to 100
NNc1ccc(OCc2ccccc2)cc1 | 101 to 103
CSC(=NC#N)NCCCOc1cccc(CN2CCCC2)c1 | 107 to 108
CCc1c(OC)nc(OC)nc1C(C#N)c1cc(Cl)cc(Cl)c1 (centres undefined) | 121 to 122
O=C(O)c1cc(-c2ccccc2S(=O)(=O)NCCO)c2ccc3c(-c4ccccc4S(=O)(=O)NCCO)cc(C(=O)O)nc3c2n1 | > 300
CC(C)c1nn(-c2ccc(C(F)(F)F)cn2)cc1COc1cc(C=O)n(C)n1 | 112 to 113
CC(CC(=O)O)CC(=O)c1ccc(N2CCC(c3ccccc3)CC2)cc1 (centres undefined) | 134 to 135
CC(=O)Nc1nc(N)nc(-c2ccc(Oc3ccccc3)cc2)n1 | > 260
COc1ccc(C2(CF)CCC(=O)CC2)cc1OC1CCCC1 | 72 to 74
COc1cc(OC)c(C2=NC(NC(=O)Nc3cccc(C)c3)C(=O)N(C)c3ccccc32)c(OC)c1 (centres undefined) | 240
CCOn1c(CC)n[nH]c1=O | 93
CCn1cc(Nc2nc(Br)cn(C)c2=O)cn1 | 138 to 140
NC1=NC(c2ccc(OC(F)F)cc2)(c2cccc(-c3cccnc3F)c2)C2=NCCCN12 (centres undefined) | 104 to 114

From a melting point compilation (Tetko et al.; mined from patent text by program, amines drawn as free bases though some values may be those of a salt)
